The subject of one assay is Pyrenophora teres. Briefly: Pyrenophora teres test (barley)/curative (Example U). The format is in vivo.
Another assay has as its system Venturia inaequalis. In words: Venturia test (apple)/protective, combinations (Example L).
Assay [1] relates to Blumeria graminis f. sp. hordei. In words: Blumeria graminis test (barley)/curative (Example P). Type of assay: in vivo. Particulars: 168 h, read-out: Efficacy in % found.
For a further assay, the system named is Botrytis cinerea. Briefly: Botrytis test (bean)/protective (Example N).
Another assay has as its system Puccinia triticina. In words: Puccinia triticina test (wheat)/curative (Example T). The format is in vivo.
The subject of the next assay is Fusarium graminearum. The format is in vivo. Conditions: 500 ppm.
For the next assay, the system named is Alternaria solani. Briefly: Alternaria test (tomato)/protective, combinations (Example M). The format is in vivo.
The subject of assay [2] is Blumeria graminis f. sp. hordei. Briefly: Blumeria graminis test (barley)/protective (Example O). Type of assay: in vivo. Particulars: 125 ppm. The method, then: [table] […] Evaluation is carried out 7 days after inoculation.
The test system of the next assay is Plasmopara viticola. Briefly: Plasmopara test (grapevine)/protective, combinations (Example K). The format is in vivo.
In assay [3] the test system is Leptosphaeria nodorum. Briefly: Leptosphaeria nodorum test (wheat)/curative (Example R). Type of assay: in vivo. Conditions: 62.5 ppm.
The test system of assay [4] is Leptosphaeria nodorum. Briefly: Leptosphaeria nodorum test (wheat)/protective (Example Q). Type of assay: in vivo. Particulars: 62.5 ppm.
In the next assay the test system is Phytophthora infestans. The format is in vivo.
Where [5] appears, read: Alternaria solani, 72 h, read-out: Efficacy in % found.

Structures can show the parent of a compound that is named as a salt. Where two headings read alike, the source gives them in different places.

Description for Botrytis cinerea: After the spray coating has dried on, 2 small pieces of agar colonized by Botrytis cinerea are placed onto each leaf. The inoculated plants are placed in a dark chamber at about 20° C. and 100% relative atmospheric humidity. 2 days after the inoculation, the size of the infected areas on the leaves is evaluated.
Description for Venturia inaequalis: After the spray coating has dried on, the plants are inoculated with an aqueous conidia suspension of the apple scab pathogen Venturia inaequalis and then remain in an incubation cabin at about 20° C. and 100% relative atmospheric humidity for 1 day. The plants are then placed in a greenhouse at about 21° C. and a relative atmospheric humidity of about 90%. Evaluation is carried out 10 days after inoculation.

With `Fc1ccc([C@]2(Cn3cncn3)O[C@H]2c2ccccc2Cl)cc1` (racemic) [(B-12) epoxiconazole, epoxiconazole], the “Efficacy in % found” value in the assay on Pyrenophora teres (500 ppm) came to 78%. With `CC(C)(C)C(O)C(Oc1ccc(-c2ccccc2)cc1)n1cncn1` (centres unmarked) [(B-3) bitertanol, bitertanol], the “Efficacy in % found” value in the assay on Venturia inaequalis (2.5 ppm) was found to be 63%. The pest or weed control at 500 ppm in [1] (500 ppm) came to 63%.

In the case of `CC1COC(Cn2cncn2)(c2ccc(Oc3ccc(Cl)cc3)cc2Cl)O1` (centres unmarked) [(B-7) difenoconazole, difenoconazole], the pest or weed control at 250 ppm in assay [1] amounted to 78%. Consider `CC1(C(=O)Nc2ccc(O)c(Cl)c2Cl)CCCCC1` [(B-16) fenhexamid, fenhexamid], for which the “Efficacy in % found” value in the assay on Botrytis cinerea (2.5 ppm) is 0%. With `C=CCOC(Cn1ccnc1)c1ccc(Cl)cc1Cl` (centres unmarked) [(B-26) imazalil, imazalil], in the assay with Puccinia triticina (500 ppm), the “Efficacy in % found” value is given as 83%. As for `CCCN(CCOc1c(Cl)cc(Cl)cc1Cl)C(=O)n1ccnc1` [(B-39) prochloraz, prochloraz], the “Efficacy in % found” value with Fusarium graminearum turned out to be 63%.

As for `OC(Cc1ccccc1Cl)(Cn1nc[nH]c1=S)C1(Cl)CC1` (centres unmarked) [(B-41) prothioconazole, prothioconazole], in the assay on Alternaria solani (setting [5]), the pest or weed control at 5 ppm came to 1%. Besides, the “Efficacy in % found” value with Pyrenophora teres (125 ppm) turned out to be 78%. In the case of `CCCN(CC)CC1COC2(CCC(C(C)(C)C)CC2)O1` (centres unmarked) [(B-46) spiroxamine, spiroxamine], the “Efficacy in % found” value in the assay on Puccinia triticina (1000 ppm) came out at 40%. Regarding `CC(C)(C)C(O)(CCc1ccc(Cl)cc1)Cn1cncn1` (centres unmarked) [(B-47) tebuconazole, tebuconazole], the pest or weed control at 5 ppm with Alternaria solani (setting [5]) was 29%. Also, the “Efficacy in % found” value in the assay on Pyrenophora teres (250 ppm) worked out at 60%. In the case of `CCCCCCCCCCCCCN1CC(C)OC(C)C1` (centres unmarked) [(B-52) tridemorph, tridemorph], the pest or weed control at 250 ppm in [1] came out at 75%. As for `Cn1cc(C(=O)Nc2ccc(F)cc2-c2ccc(Cl)c(Cl)c2)c(C(F)F)n1` [(C-2) bixafen, N-(3′,4′-dichloro-5-fluoro-1,1′-biphenyl-2-yl)-3-(difluoromethyl)-1-methyl-1H-pyrazole-4-carboxamide], in the assay on Alternaria solani (Alternaria solani, 72 h, 1.25 ppm, read-out: Efficacy in % found), the pest or weed control at 1.25 ppm stood at 49%. For the same compound, in [1] (500 ppm), the pest or weed control at 500 ppm worked out at 63%. For `O=C(Nc1ccccc1-c1ccc(Cl)cc1)c1cccnc1Cl` [(C-3) boscalid, boscalid], in the assay with Venturia inaequalis (5 ppm), the “Efficacy in % found” value is on record as 36%.

On to `O=C(NCCc1ncc(C(F)(F)F)cc1Cl)c1ccccc1C(F)(F)F` [(C-6) fluopyram, N-{2-[3-chloro-5-(trifluoromethyl)pyridin-2-yl]ethyl}-2-(trifluoromethyl)benzamide], for which the pest or weed control at 2.5 ppm with Alternaria solani (setting [5]) worked out at 23%. Consider `CC(C)CC(C)c1sccc1NC(=O)c1cn(C)nc1C(F)(F)F` (centres unmarked) [(C-12) penthiopyrad, penthiopyrad], for which the “Efficacy in % found” value in the assay with Venturia inaequalis (5 ppm) came to 60%. For the same compound, the pest or weed control at 250 ppm in [1] amounted to 88%. Regarding `Cc1nn(C)c(F)c1C(=O)Nc1ccccc1C(C)CC(C)C` (centres unmarked) [(C-14), N-[2-(1,3-dimethylbutyl)phenyl]-5-fluoro-1,3-dimethyl-1H-pyrazole-4-carboxamide], the pest or weed control at 2.5 ppm in the assay on Alternaria solani (setting [5]) is 0%. The pest or weed control at 250 ppm in assay [1] worked out at 67%. On to `Cn1cc(C(=O)Nc2ccccc2OC(F)(F)C(F)F)c(C(F)F)n1` [(C-19), 3-(difluoromethyl)-1-methyl-N-[2-(1,1,2,2-tetrafluoroethoxy)phenyl]-1H-pyrazole-4-carboxamide], for which the “Efficacy in % found” value in the assay on Venturia inaequalis (5 ppm) came out at 35%; in [2], 78%. Turning to `CC(C)C1C2CCC1c1c(NC(=O)c3cn(C)nc3C(F)F)cccc12` (centres unmarked) [(C-41) isopyrazam, 3-(difluoromethyl)-1-methyl-N-[1,2,3,4-tetrahydro-9-(1-methylethyl)-1,4-methanonaphthalen-5-yl]-1H-pyrazole-4-carboxamide], the pest or weed control at 500 ppm in [1] is 78%.

For `CSC1=N[C@@](C)(c2ccccc2)C(=O)N1Nc1ccccc1` [(D-2) fenamidone, fenamidone], the “Efficacy in % found” value in the assay with Plasmopara viticola (1 ppm) was determined as 19%. As to `CO/C=C(/C(=O)OC)c1ccccc1Oc1cc(Oc2ccccc2C#N)ncn1` [(D-4) azoxystrobin, azoxystrobin], in the assay with Leptosphaeria nodorum [3], the “Efficacy in % found” value worked out at 60%.

For `CO/N=C(/C1=NOCCO1)c1ccccc1Oc1ncnc(Oc2ccccc2Cl)c1F` [(D-8) fluoxastrobin, fluoxastrobin], in the assay on Alternaria solani (setting [5]), the pest or weed control at 5 ppm was 35%. In addition, the pest or weed control at 500 ppm in assay [1] (500 ppm) was 78%. Consider `COC(=O)N(OC)c1ccccc1COc1ccn(-c2ccc(Cl)cc2)n1` [(D-13) pyraclostrobin, pyraclostrobin], for which the pest or weed control at 5 ppm in the assay on Alternaria solani (setting [5]) amounted to 49%. Moreover, the “Efficacy in % found” value with Leptosphaeria nodorum [4] was determined as 94%. `CON=C(C(=O)OC)c1ccccc1CON=C(C)c1cccc(C(F)(F)F)c1` [(D-15) trifloxystrobin, trifloxystrobin]: the “Efficacy in % found” value with Puccinia triticina (500 ppm) was 83%. In the assay on Alternaria solani (setting [5]), the pest or weed control at 5 ppm amounted to 40%.

Turning to `O=C(NCc1ncc(C(F)(F)F)cc1Cl)c1c(Cl)cccc1Cl` [(E-6) fluopicolide, fluopicolide], the “Efficacy in % found” value in the assay with Phytophthora infestans (2 ppm) was 9%. As for `N#Cc1c(Cl)c(Cl)c(Cl)c(C#N)c1Cl` [(F-4) chlorothalonil, chlorothalonil], the “Efficacy in % found” value in the assay on Pyrenophora teres (1000 ppm) is 30%. As for `Cc1cc(C)nc(Nc2ccccc2)n1` [(G-10) pyrimethanil, pyrimethanil], the “Efficacy in % found” value with Botrytis cinerea (12.5 ppm) was 13%.

As to `CC(C)[C@H](NC(=O)O)C(=O)N[C@H](C)c1nc2ccc(F)cc2s1` [(G-15) benthiavalicarb, benthiavalicarb], in the assay with Phytophthora infestans (0.5 ppm), the “Efficacy in % found” value was found to be 23%. Turning to `COc1ccc(C(=CC(=O)N2CCOCC2)c2ccc(Cl)cc2)cc1OC` [(G-16) dimethomorph, dimethomorph], in the assay on Plasmopara viticola (1 ppm), the “Efficacy in % found” value is 0%. With `Cc1ccc(C(C)NC(=O)[C@@H](NC(=O)OC(C)C)C(C)C)cc1` (some centres unmarked) [(G-18) iprovalicarb, iprovalicarb], the “Efficacy in % found” value in the assay on Phytophthora infestans (2 ppm) came to 30%; with Plasmopara viticola (0.5 ppm), 0%. Consider `CC(C)NC(=O)N1CC(=O)N(c2cc(Cl)cc(Cl)c2)C1=O` [(G-31) iprodione, iprodione], for which the “Efficacy in % found” value in the assay with Botrytis cinerea (12.5 ppm) was 11%.

For `CCCOC(=O)NCCCN(C)C` [(G-35) propamocarb hydrochloride, propamocarb hydrochloride], the “Efficacy in % found” value with Phytophthora infestans (100 ppm) and in the assay with Plasmopara viticola (400 ppm) was 0% each time. As to `COCC(=O)N(c1c(C)cccc1C)[C@H](C)C(=O)OC` [(G-55) metalaxyl-M, metalaxyl-M], the “Efficacy in % found” value in the assay with Phytophthora infestans (2.5 ppm) was 10%.

In the case of `N#Cc1c[nH]cc1-c1cccc2c1OC(F)(F)O2` [(G-60) fludioxonil, fludioxonil], the “Efficacy in % found” value in the assay with Pyrenophora teres (250 ppm) was 78%.

As for `O=[N+]([O-])c1cc(C(F)(F)F)c(Cl)c([N+](=O)[O-])c1Nc1ncc(C(F)(F)F)cc1Cl` [(G-64) fluazinam, fluazinam], in the assay with Plasmopara viticola (5 ppm), the “Efficacy in % found” value is given as 0%. `CCNC(=O)NC(=O)/C(C#N)=N/OC` [(G-73) cymoxanil, cymoxanil]: the “Efficacy in % found” value in the assay on Plasmopara viticola (50 ppm) is recorded as 0%. `CCO[PH](=O)O` [(G-86) fosetyl-Al, fosetyl-Al]: the “Efficacy in % found” value in the assay on Plasmopara viticola (200 ppm) is 0%. For the compound `OP(O)O` [(G-101) phosphorous acid, phosphorous acid], the “Efficacy in % found” value in the assay with Plasmopara viticola (400 ppm) was found to be 30%. Regarding mancozeb [(F-20) mancozeb], the “Efficacy in % found” value came to 20% in the assay with Phytophthora infestans (25 ppm), 5% with Plasmopara viticola (100 ppm) and 31% with Alternaria solani (50 ppm).

propineb [(F-24) propineb]: the “Efficacy in % found” value is recorded as 15% in the assay with Phytophthora infestans (100 ppm) and 51% with Plasmopara viticola (100 ppm).

Values taken from patent publication US20110003689A1, “USE OF POLYMERIC GUANIDINE DERIVATIVES FOR THE CONTROL OF UNWANTED MICROORGANISMS IN CROP PROTECTION” (AKA TECHNOLOGY GMBH, priority 2007, published 2011).
